How the values were obtained:
surinam grass [1] = assay: Test C pre-/postemergence herbicide test; format: in vivo, Brachiaria decumbens
Outline: (§1)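 Test compounds, formulated in a surfactant-containing non-phytotoxic solvent blend, are applied to seeded loam/sand soil (preemergence) and to young plants at the 1- to 4-leaf stage in peat-based medium (postemergence). Plants stay 13 to 15 days under greenhouse conditions, then are scored visually relative to controls, 0 = no effect, 100 = complete control.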

goosegrass = assay: Test C pre-/postemergence herbicide test; format: in vivo, Eleusine indica
Outline: as §1

kochia = assay: Test D pre-/postemergence herbicide test; format: in vivo, Kochia scoparia; conditions: Postemergence, Kochia, scale 0 to 100
Outline: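 Seeds sown in silt loam were sprayed preemergence with test chemicals in a non-phytotoxic solvent mixture with surfactant. Postemergence plants grown in peat/vermiculite medium were treated at 2–18 cm (1- to 4-leaf stage). After 7 to 21 days in a controlled environment, injury was rated visually versus controls, 0 (no effect) to 100 (complete control).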

surinam grass [2] = assay: Test E preemergence herbicide test; format: in vivo, Brachiaria decumbens; parameters: key: 0 = no effect, 100 = complete control
Source text: Seeds of plant species selected from corn (Zea mays), soybean (Glycine max), velvetleaf (Abutilon theophrasti), lambsquarters (Chenopodium album), wild poinsettia (Euphorbia heterophylla), pigweed, palmer (palmer pigweed, Amaranthus palmeri), waterhemp (common waterhemp, Amaranthus rudis), surinam grass (Brachiaria decumbens), crabgrass, large (large crabgrass, Digitaria sanguinalis), crabgrass, Brazil (Brazilian crabgrass, Digitaria horizontalis), panicum, fall (fall panicum, Panicum dichotomiflorum), foxtail, giant (giant foxtail, Setaria faberii), foxtail, green (green foxtail, Setaria viridis), goosegrass (Eleusine indica), johnsongrass (Sorghum halepense), ragweed (common ragweed, Ambrosia elatior), barnyardgrass (Echinochloa crus-galli), sandbur (southern sandbur, Cenchrus echinatus), arrowleaf […] rhombifolia), ryegrass, Italian (Italian ryegrass, Lolium multiflorum), dayflower, VA (Virginia dayflower, Commelina virginica), field bindweed (Convolvulus arvensis), morningglory (Ipomoea coccinea), nightshade (eastern black nightshade, Solanum ptycanthum), kochia (Kochia scoparia), nutsedge, yellow (yellow nutsedge, Cyperus esculentus), cocklebur (common cocklebur, Xanthium strumarium), smartweed (ladysthumb smartweed, Polygonum Persicaria) and beggarticks (hairy beggarticks, Bidens pilosa), were planted into a silt loam soil and treated preemergence with test chemicals formulated in a non-phytotoxic solvent mixture which included a surfactant. Treated plants and controls were maintained in a greenhouse for 21 days, after which time all species were compared to controls and visually evaluated. Plant response ratings, summarized in Table E, are based on a scale of 0 to 100 where 0 is no effect and 100 is complete control. A dash (-) response means no test result.

panicum, fall = assay: Test E preemergence herbicide test; format: in vivo, Panicum dichotomiflorum; parameters: key: 0 = no effect, 100 = complete control
Outline: (§2)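 Test chemicals, formulated in a surfactant-containing non-phytotoxic solvent blend, are applied preemergence to seeded silt loam soil. After 21 days in the greenhouse, response is scored visually relative to controls, where 100 means complete control and 0 means no effect.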

foxtail, giant = assay: Test E preemergence herbicide test; format: in vivo, Setaria faberii; parameters: key: 0 = no effect, 100 = complete control
Outline: as §2

[3] = Postemergence, 31 g ai/ha, scale 0 (no effect) to 100 (complete control)
[4] = Postemergence, 62 g ai/ha, scale 0 to 100 (0 no effect, 100 complete control)
[5] = Postemergence, 125 g ai/ha, scale 0 to 100 (0 no effect, 100 complete control)
[6] = Postemergence, 250 g ai/ha, scale 0 to 100 (0 no effect, 100 complete control)
[7] = Preemergence, 62 g ai/ha, scale 0 to 100
[8] = Preemergence, 125 g ai/ha, scale 0 to 100 (0 no effect, 100 complete control)

## O=C1NCC(c2ccc(F)c(F)c2)C1C(=O)Nc1cccc(F)c1F (stereo not drawn) [Compound 17, N-(2,3-difluorophenyl)-4-(3,4-difluorophenyl)-2-oxo-3-pyrrolidinecarboxamide]
Surinam grass [1]; [3]
  Plant response rating, Surinam Grass: 0
Surinam grass [1]; [4]
  Plant response rating, Surinam Grass: 0
Surinam grass [1]; [5]
  Plant response rating, Surinam Grass: 45
Surinam grass [1]; [6]
  Plant response rating, Surinam Grass: 60
Surinam grass [1]; [7]
  Plant response rating, Surinam Grass: 90
Surinam grass [1]; [8]
  Plant response rating, Surinam Grass: 90
goosegrass; [3]
  Plant response rating, Goosegrass: 0
goosegrass; [4]
  Plant response rating, Goosegrass: 0
goosegrass; [5]
  Plant response rating, Goosegrass: 0
goosegrass; [6]
  Plant response rating, Goosegrass: 0
goosegrass; [7]
  Plant response rating, Goosegrass: 50
goosegrass; [8]
  Plant response rating, Goosegrass: 85
goosegrass; Preemergence, 31 g ai/ha, scale 0 to 100 (0 no effect, 100 complete control)
  Goosegrass plant response rating: 0
kochia; 16 g ai/ha
  Plant response rating: 0
kochia; 31 g ai/ha
  Plant response rating: 0
kochia; 62 g ai/ha
  Plant response rating: 20
kochia; 125 g ai/ha
  Plant response rating: 20
kochia; 250 g ai/ha
  Plant response rating: 40
Surinam grass [2]; 16 g ai/ha
  Plant response rating, Surinam Grass: 0
Surinam grass [2]; 31 g ai/ha
  Plant response rating, Surinam Grass: 0
Surinam grass [2]; 62 g ai/ha
  Plant response rating, Surinam Grass: 50
Surinam grass [2]; 125 g ai/ha
  Plant response rating, Surinam Grass: 70
Surinam grass [2]; 250 g ai/ha
  Plant response rating, Surinam Grass: 75
panicum, fall; 16 g ai/ha
  Plant response rating, Panicum, Fall: 0
panicum, fall; 31 g ai/ha
  Plant response rating, Panicum, Fall: 0
panicum, fall; 62 g ai/ha
  Plant response rating, Panicum, Fall: 0
panicum, fall; 125 g ai/ha
  Plant response rating, Panicum, Fall: 0
panicum, fall; 250 g ai/ha
  Plant response rating, Panicum, Fall: 0
foxtail, giant; 16 g ai/ha
  Plant response rating, Foxtail, Giant: 0
foxtail, giant; 31 g ai/ha
  Plant response rating, Foxtail, Giant: 35
foxtail, giant; 62 g ai/ha
  Plant response rating, Foxtail, Giant: 35
foxtail, giant; 125 g ai/ha
  Plant response rating, Foxtail, Giant: 95
foxtail, giant; 250 g ai/ha
  Plant response rating, Foxtail, Giant: 98
